The values below come from the supplement of paper PMC11208160.
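Further: IS621 recombinase and bridge RNA in Escherichia coli cells.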

The nature of the data set: recombinant barcode read abundance after kanamycin selection (control-corrected) (log10(CPM+1)); higher = more efficient recombination; sequences stand for … in AGTGCAGAGAAAATCGGCCAGTTTTCTCTGCCTGCAGTCCGCATGCCGT…AGATTTATGCAGCGGACTGCCTTTCTCCCAAAGTGATAAACCGGACAGTATCATGGACCGGTTTTCCCGGTAATCCGTATTTGCAAGGTTGGTTTCACT; site = the 11-nt target. The gist of the method: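 IS621 bridge RNA target-binding loops were paired with targets in a pooled library tested in E. coli. After co-electroporation with a donor plasmid, cells were plated in two replicates on chloramphenicol/ampicillin LB agar (control) and on chloramphenicol/ampicillin/kanamycin carrying 0.1 mM IPTG. Barcodes at recombinant junctions were counted as counts per million, averaged and control-corrected to give recombination efficiency. Values are log10(CPM+1).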
Take “CATGCTCCTTGGGTTCTAACCTGTTGCCT (site CATGCTCCTAT)”: the “recombinant barcode read abundance (log10)” value turned out to be 0.512.

Consider “CATTAGCCTTGGGTTCTAACCTGTTGCCT (site CATAAGCCTAG)”, for which the “recombinant barcode read abundance (log10)” value is 0.0881.

“CATTAGCCTTGGGTTCTAACCTGTTGCCT (site CATCAGCCTAG)”: the “recombinant barcode read abundance (log10)” value was 0.26.

For the sequence “CATTAGCCTTGGGTTCTAACCTGTTGCCT (site CATGAGCCTAG)”, the “recombinant barcode read abundance (log10)” value was found to be 0.0107.

Turning to “CATTAGCCTTGGGTTCTAACCTGTTGCCT (site CATTAGCCTAG)”, the “recombinant barcode read abundance (log10)” value amounted to 0.583.

Regarding “CATTAGTCTTGGGTTCTAACCTGTTGCCT (site CATTAGTCTAG)”, the “recombinant barcode read abundance (log10)” value amounted to 1.33.

In the case of “CATTAGTCTTGGGTTCTAACCTGTTGCCT (site TATTAATCTAG)”, the “recombinant barcode read abundance (log10)” value amounted to 0.0986.

With “CATTATCCTTGGGTTCTAACCTGTTGCCT (site CAATATCCTAG)”, the “recombinant barcode read abundance (log10)” value turned out to be 0.0661.

Take “CATTATCCTTGGGTTCTAACCTGTTGCCT (site CACTATCCTAG)”: the “recombinant barcode read abundance (log10)” value turned out to be 0.161.

As to “CATTATCCTTGGGTTCTAACCTGTTGCCT (site CAGTATCCTAG)”, the “recombinant barcode read abundance (log10)” value was 0.0928.

On to “CATTATCCTTGGGTTCTAACCTGTTGCCT (site CATTATCCTAG)”, for which the “recombinant barcode read abundance (log10)” value was found to be 0.136.

“CATTCAACTTGGGTTCTAACCTGTTGCCG (site CATTCAACTAG)”: the “recombinant barcode read abundance (log10)” value was found to be 0.0546.

Take “CATTCAACTTGGGTTCTAACCTGTTGCCG (site CATTCAACTCG)”: the “recombinant barcode read abundance (log10)” value is 0.0716.

For “CCAAGATCTTGGGTTCTAACCTGTTGCCT (site CAAAGATCTAG)”, the “recombinant barcode read abundance (log10)” value worked out at 0.178.

With “CCAAGATCTTGGGTTCTAACCTGTTGCCT (site CCAAGATCTAG)”, the “recombinant barcode read abundance (log10)” value was 0.556.

As to “CCAAGATCTTGGGTTCTAACCTGTTGCCT (site CGAAGATCTAG)”, the “recombinant barcode read abundance (log10)” value was 0.201.

In the case of “CCAAGATCTTGGGTTCTAACCTGTTGCCT (site CTAAGATCTAG)”, the “recombinant barcode read abundance (log10)” value is 0.46.

In the case of “CCAAGCGCTTGGGTTCTAACCTGTTGCCT (site CCAAGCACTAG)”, the “recombinant barcode read abundance (log10)” value was 0.589.

Consider “CCAAGCGCTTGGGTTCTAACCTGTTGCCT (site CCAAGCCCTAG)”, for which the “recombinant barcode read abundance (log10)” value came to 0.0283.

With “CCAAGCGCTTGGGTTCTAACCTGTTGCCT (site CCAAGCGCTAG)”, the “recombinant barcode read abundance (log10)” value was 0.769.

Regarding “CCAAGCGCTTGGGTTCTAACCTGTTGCCT (site CCAAGCTCTAG)”, the “recombinant barcode read abundance (log10)” value was 0.209.

On to “CCAAGGGCTTGGGTTCTAACCTGTTGCAG (site CCAAGGGCTCA)”, for which the “recombinant barcode read abundance (log10)” value amounted to 1.09.

For the sequence “CCAAGGGCTTGGGTTCTAACCTGTTGCAG (site CCAAGGGCTCC)”, the “recombinant barcode read abundance (log10)” value turned out to be 0.546.

As to “CCAAGGGCTTGGGTTCTAACCTGTTGCAG (site CCAAGGGCTCG)”, the “recombinant barcode read abundance (log10)” value was determined as 0.537.

Take “CCAAGGGCTTGGGTTCTAACCTGTTGCAG (site CCAAGGGCTCT)”: the “recombinant barcode read abundance (log10)” value came out at 2.13.

As for “CCAAGGGCTTGGGTTCTAACCTGTTGCCG (site CCAAGGGCTCA)”, the “recombinant barcode read abundance (log10)” value came out at 0.0491.

As for “CCAAGGGCTTGGGTTCTAACCTGTTGCCG (site CCAAGGGCTCC)”, the “recombinant barcode read abundance (log10)” value turned out to be 0.211.

Take “CCAAGGGCTTGGGTTCTAACCTGTTGCCG (site CCAAGGGCTCG)”: the “recombinant barcode read abundance (log10)” value stood at 0.143.

“CCAAGGGCTTGGGTTCTAACCTGTTGCCG (site CCAAGGGCTCT)”: the “recombinant barcode read abundance (log10)” value was 0.33.

Regarding “CCAAGTCCTTGGGTTCTAACCTGTTGCCA (site CCAAGTCCTTG)”, the “recombinant barcode read abundance (log10)” value came out at 0.0554.

On to “CCAAGTCCTTGGGTTCTAACCTGTTGCCA (site GTTCAGACTAA)”, for which the “recombinant barcode read abundance (log10)” value was found to be 0.031.

Consider “CCAATTGCTTGGGTTCTAACCTGTTGCCT (site CCAATTGCTAG)”, for which the “recombinant barcode read abundance (log10)” value was 0.108.

Turning to “CCAATTGCTTGGGTTCTAACCTGTTGCCT (site CTAATTGCTAG)”, the “recombinant barcode read abundance (log10)” value was 0.0541.

For the sequence “CCACTCCCTTGGGTTCTAACCTGTTGCCT (site CCACTACCTAG)”, the “recombinant barcode read abundance (log10)” value was found to be 0.166.

Turning to “CCACTCCCTTGGGTTCTAACCTGTTGCCT (site CCACTCCCTAG)”, the “recombinant barcode read abundance (log10)” value worked out at 0.0427.

On to “CCACTCCCTTGGGTTCTAACCTGTTGCCT (site CCACTGCCTAG)”, for which the “recombinant barcode read abundance (log10)” value came out at 0.0666.

Turning to “CCACTCCCTTGGGTTCTAACCTGTTGCCT (site CCACTTCCTAG)”, the “recombinant barcode read abundance (log10)” value came to 0.279.

Consider “CCACTTCCTTGGGTTCTAACCTGTTGCCT (site CCACTACCTAG)”, for which the “recombinant barcode read abundance (log10)” value turned out to be 0.233.

With “CCACTTCCTTGGGTTCTAACCTGTTGCCT (site CCACTCCCTAG)”, the “recombinant barcode read abundance (log10)” value stood at 0.176.

In the case of “CCACTTCCTTGGGTTCTAACCTGTTGCCT (site CCACTGCCTAG)”, the “recombinant barcode read abundance (log10)” value worked out at 0.0522.

With “CCACTTCCTTGGGTTCTAACCTGTTGCCT (site CCACTTCCTAG)”, the “recombinant barcode read abundance (log10)” value amounted to 0.0928.

With “CCAGAAGCTTGGGTTCTAACCTGTTGCGT (site CCAGAAGCTAC)”, the “recombinant barcode read abundance (log10)” value came to 0.279.

With “CCAGAAGCTTGGGTTCTAACCTGTTGCGT (site CCAGTAGCTCC)”, the “recombinant barcode read abundance (log10)” value was 0.434.

Regarding “CCAGCTGCTTGGGTTCTAACCTGTTGCCT (site CCAGCTGCTAG)”, the “recombinant barcode read abundance (log10)” value turned out to be 1.11.

Consider “CCAGCTGCTTGGGTTCTAACCTGTTGCCT (site GTGCGCTCTGC)”, for which the “recombinant barcode read abundance (log10)” value amounted to 0.137.

Regarding “CCAGGAGCTTGGGTTCTAACCTGTTGCAG (site CCAGGAGCTCT)”, the “recombinant barcode read abundance (log10)” value was 0.312.

In the case of “CCAGGAGCTTGGGTTCTAACCTGTTGCAG (site TCTGGAGCTCT)”, the “recombinant barcode read abundance (log10)” value is 0.141.

With “CCAGGGACTTGGGTTCTAACCTGTTGCCT (site CCAAGGACTAG)”, the “recombinant barcode read abundance (log10)” value amounted to 0.683.

Turning to “CCAGGGACTTGGGTTCTAACCTGTTGCCT (site CCACGGACTAG)”, the “recombinant barcode read abundance (log10)” value worked out at 0.294.

“CCAGGGACTTGGGTTCTAACCTGTTGCCT (site CCAGGGACTAG)”: the “recombinant barcode read abundance (log10)” value is 1.31.

Regarding “CCAGGGACTTGGGTTCTAACCTGTTGCCT (site CCATGGACTAG)”, the “recombinant barcode read abundance (log10)” value stood at 0.0751.

“CCAGTTACTTGGGTTCTAACCTGTTGCCT (site CCAGTAACTAG)”: the “recombinant barcode read abundance (log10)” value stood at 0.104.

Take “CCAGTTACTTGGGTTCTAACCTGTTGCCT (site CCAGTCACTAG)”: the “recombinant barcode read abundance (log10)” value stood at 0.132.

On to “CCAGTTACTTGGGTTCTAACCTGTTGCCT (site CCAGTGACTAG)”, for which the “recombinant barcode read abundance (log10)” value came to 0.195.

Consider “CCAGTTACTTGGGTTCTAACCTGTTGCCT (site CCAGTTACTAG)”, for which the “recombinant barcode read abundance (log10)” value worked out at 0.351.

With “CCATACCCTTGGGTTCTAACCTGTTGCTA (site ATCATAGCTGC)”, the “recombinant barcode read abundance (log10)” value was found to be 0.019.

Consider “CCATACCCTTGGGTTCTAACCTGTTGCTA (site CCATACCCTTA)”, for which the “recombinant barcode read abundance (log10)” value was 0.884.

Turning to “CCATAGTCTTGGGTTCTAACCTGTTGCTT (site CCATAGTCTAA)”, the “recombinant barcode read abundance (log10)” value is 0.732.

“CCATAGTCTTGGGTTCTAACCTGTTGCTT (site GCACAGTCTAA)”: the “recombinant barcode read abundance (log10)” value amounted to 0.052.

In the case of “CCATCCTCTTGGGTTCTAACCTGTTGCTT (site CAATCCTCTAA)”, the “recombinant barcode read abundance (log10)” value came out at 0.04.

As for “CCATCCTCTTGGGTTCTAACCTGTTGCTT (site CCATCCTCTAA)”, the “recombinant barcode read abundance (log10)” value came out at 0.0749.

In the case of “CCATGGTCTTGGGTTCTAACCTGTTGCTT (site CCATACTCTAA)”, the “recombinant barcode read abundance (log10)” value came to 0.01.

Consider “CCATGGTCTTGGGTTCTAACCTGTTGCTT (site CCATGGTCTAA)”, for which the “recombinant barcode read abundance (log10)” value was found to be 1.78.

Consider “CCGAATCCTTGGGTTCTAACCTGTTGCCT (site CCGAATCCTAG)”, for which the “recombinant barcode read abundance (log10)” value came out at 0.355.

For the sequence “CCGAATCCTTGGGTTCTAACCTGTTGCCT (site CCGACTCCTAG)”, the “recombinant barcode read abundance (log10)” value was found to be 0.361.

Regarding “CCGAATCCTTGGGTTCTAACCTGTTGCCT (site CCGAGTCCTAG)”, the “recombinant barcode read abundance (log10)” value amounted to 0.122.

With “CCGAATCCTTGGGTTCTAACCTGTTGCCT (site CCGATTCCTAG)”, the “recombinant barcode read abundance (log10)” value came to 0.199.

Regarding “CCGACTTCTTGGGTTCTAACCTGTTGCCT (site CAGACTTCTAG)”, the “recombinant barcode read abundance (log10)” value stood at 0.219.

Turning to “CCGACTTCTTGGGTTCTAACCTGTTGCCT (site CCGACTTCTAG)”, the “recombinant barcode read abundance (log10)” value was 0.164.

With “CCGACTTCTTGGGTTCTAACCTGTTGCCT (site CGGACTTCTAG)”, the “recombinant barcode read abundance (log10)” value came to 0.244.

In the case of “CCGACTTCTTGGGTTCTAACCTGTTGCCT (site CTGACTTCTAG)”, the “recombinant barcode read abundance (log10)” value worked out at 0.129.

“CCGAGAGCTTGGGTTCTAACCTGTTGCCT (site CAGAGAGCTAG)”: the “recombinant barcode read abundance (log10)” value was determined as 0.0908.

Regarding “CCGAGAGCTTGGGTTCTAACCTGTTGCCT (site CCGAGAGCTAG)”, the “recombinant barcode read abundance (log10)” value came out at 0.454.

In the case of “CCGAGAGCTTGGGTTCTAACCTGTTGCCT (site CGGAGAGCTAG)”, the “recombinant barcode read abundance (log10)” value was 0.0785.

Turning to “CCGAGAGCTTGGGTTCTAACCTGTTGCCT (site CTGAGAGCTAG)”, the “recombinant barcode read abundance (log10)” value worked out at 0.0419.

Regarding “CCGCATGCTTGGGTTCTAACCTGTTGCCT (site CCGAATGCTAG)”, the “recombinant barcode read abundance (log10)” value was determined as 0.0372.

As to “CCGCATGCTTGGGTTCTAACCTGTTGCCT (site CCGCATGCTAG)”, the “recombinant barcode read abundance (log10)” value came out at 0.234.
